Literature values, collected in patent publication US11297852B2, “Method for treatment or prevention of gill disease” (NUTRECO IP ASSETS B.V., priority 2015, dated 2022).
Where two headings read alike, the source gives them in different places.

Key:
[1] = system: P. perurans; settings: in feed
[2] = system: amoebae; settings: in vitro bath treatment at 10 mg/l, used individually
[3] = system: AGD; settings: oral supplementation
[4] = Atlantic salmon
[5] = system: AGD; settings: oral administration two weeks prior to challenge
[6] = system: AGD; settings: in feed at 25 mg/kg
[7] = 7 days after P. perurans challenge

For `CC[C@@H](C(=O)[C@@H](C)[C@@H](O)[C@H](C)[C@@H]1O[C@@H]([C@@H](CC)C(=O)O)CC[C@@H]1C)[C@H]1O[C@]2(C=C[C@@H](O)[C@]3(CC[C@@](C)([C@H]4CC[C@](O)(CC)[C@H](C)O4)O3)O2)[C@H](C)C[C@@H]1C` [Salinomycin], the “percent of lamella with lesions compared to control fed fish” value (“percent of lamella with lesions” below) ([1]; 14 and 21 days after challenge) is given as “no difference”, the “percent of lamella with lesions” value [1, 7] is given as “reduced the percent of lamella with lesions” and the amoebae numbers [2] is given as “significantly reduced amoebae numbers”.

In the case of glucans, the “impact on mortality levels” value [3] is listed as “no significant impact”.

In the case of `c1ccc([C@H]2CN3CCSC3=N2)cc1` [levamisole], the “impact on mortality levels” value [3] is given as “no significant impact”.

In the case of `CCOC(=O)[C@@H](N)CS` [LCEE, L-cysteine ethyl ester], the mucus viscosity [4] is given as “reduce mucus viscosity” and the “progression of AGD associated gill pathology” value [5] is given as “significantly delayed the progression”.

For `CC[C@@H](C(=O)[C@@H](C)[C@@H](O)[C@H](C)CCc1ccc(C)c(O)c1C(=O)O)[C@H]1O[C@](CC)([C@H]2CC[C@](O)(CC)[C@H](C)O2)C[C@@H]1C` [Lasalocid acid], the “percent of lamella with lesions” value ([1]; 14 and 21 days after challenge) is given as “no difference”, the “percent of lamella with lesions” value [1, 7] is given as “reduced the percent of lamella with lesions” and the amoebae numbers [2] is given as “significantly reduced amoebae numbers”.

In the case of `Oc1c(Cl)cc(Cl)cc1Sc1cc(Cl)cc(Cl)c1O` [Bithionol], the AGD associated lesions [6] is given as “delay and reduction in intensity”.

For `CO[C@@H]1[C@@H](OC)[C@H](C)[C@@](O)(CC(=O)O)O[C@H]1[C@H](C)[C@H]1O[C@@]2(CC[C@@](C)([C@H]3CC[C@@](C)([C@@H]4O[C@@H]([C@H]5O[C@](C)(O)[C@H](C)C[C@@H]5C)C[C@@H]4O[C@@H]4C[C@H](OC)[C@@H](OC)[C@H](C)O4)O3)O2)C[C@H](O)[C@H]1C` [Maduramycin], the “percent of lamella with lesions” value ([1]; 14 and 21 days after challenge) is given as “no difference”, the “percent of lamella with lesions” value [1, 7] is given as “reduced the percent of lamella with lesions” and the amoebae numbers [2] is given as “significantly reduced amoebae numbers”.
